From US5278146A, “CRF analogs” (The Salk Institute for Biological Studies, priority 1992, dated 1994)
Where no end group is shown, it is not given here. [ ]: non-standard residue; d: D form. Nle = CCCC[C@H](N)C(=O)O; Nva = CCC[C@H](N)C(=O)O

Tests used:
[1] = test system: cultured rat pituitary cells; assay: Secretion of ACTH and β-endorphin by cultured rat pituitary cells; assay type: cell-based; conditions: general procedure of Example III
Method: The synthetic peptide [D-Glu^20 ]-oCRF is examined for its effects on the secretion of ACTH and β-endorphin vitro and was also in vivo. The potency of synthetic [D-Glu^20 ]-oCRF to stimulate the secretion of ACTH and β-endorphin by cultured rat pituitary cells is measured using the procedure as generally set forth in Endocrinology, 91, 562 (1972) and compared against synthetic oCRF.

[2] = In vivo testing (procedure of C. Rivier et al., Science 218, 377): duration of potency and blood pressure; conditions: administered peripherally (where stated)
[3] = test system: ACTH and β-endorphin-like activities (β-END-LI); conditions: in vitro and in vivo; cited from earlier work
[4] = injected peripherally, e.g. intravenously; cited from earlier work

Substance	Stimulation of the secretion of ACTH and β-END-LI [1]	Lowering of blood pressure [2]	Stimulation of ACTH and β-endorphin secretion / β-END-LI (background) [3]	Lowering of blood pressure (background) [4]
H-SQEPPISLDLT[dF]HLLREML[dE]RAKAEQEAEQAALNRLLLEEA-NH2 [[D-Phe^12, D-Glu^20, Arg^21]-AHC]	stimulates the secretion of ACTH and β-END-LI	very significant lowering of blood pressure		
H-SQEPPISLDLT[dF]HLLRE[Nle]LE[Nle]AK[dA]EQEAEQAALNRLLLEEA-NH2 [[D-Phe^12, Nle^18,21, D-Ala^24]-AHC]	stimulates the secretion of ACTH and β-END-LI	very significant lowering of blood pressure		
H-SQ[dY]PPISLDLTFHLLRE[Nle]L[dE][Nva]AK[dA]EQEAEQAALNRLLLEEA-NH2	stimulates the secretion of ACTH and β-END-LI	very significant lowering of blood pressure		
H-Ser-Gln-Glu-Pro-Pro-Ile-Ser-Leu-Asp-Leu-Thr-D-Phe-Glu-Leu-Leu-Arg-Glu-Met-T-Glu-Ile-Ala-Lys-Ala-Glu-Gln-Glu-Ala-Glu-Gln-Ala-Ala-Leu-Asn-Arg-Lys-Tyr-Leu-Glu-Glu-Val-NH2	stimulates the secretion of ACTH and β-END-LI	very significant lowering of blood pressure		
H-Ser-Glu-Glu-Pro-Pro-Ile-Ser-Leu-Asp-Leu-Thr-D-Phe-Glu-Lue-Leu-Arg-Glu-Nle-Leu-Glu-Met-Glu-Orn-Ala-Glu-Lys-Glu-Ala-Glu-Gln-Ala-Ala-Leu-Asn-Arg-Leu-Leu-Leu-Glu-Glu-Ala-NH2	stimulates the secretion of ACTH and β-END-LI	very significant lowering of blood pressure		
H-pGlu-Glu-Pro-Pro-Ile-Ser-Leu-Asp-:-Thr-D-Phe-His-Leu-Leu-Arg-Glu-Val-Leu-Glu-Met-Ala-Arg-D-Ala-Glu-Gln-Leu-Ala-Gln-Gln-Ala-His-Ser-Asn-Arg-Lys-Leu- Met-Glu-Ile-Ile-NH2 [[pGlu^2, D-Phe^12, D-Ala^24]-rCRF(2-41)]	stimulates the secretion of ACTH and β-END-LI	very significant lowering of blood pressure		
rCRF: rat CRF, homologous hentetracontapeptide of U.S. Pat. No. 4,489,163; same formula as human CRF (SEEPPISLDLTFHLLREVLEMARAEQLAQQAHSNRKLMEII; ends and bridges not checked; UniProt P01143 145-185, looked up)			stimulate ACTH and β-endorphin-like activities	substantially lower blood pressure
